Reference: ChEMBL document CHEMBL5107958, “Phosphoramidate Prodrugs Continue to Deliver, The Journey of Remdesivir (GS-5734) from RSV to SARS-CoV-2” (ACS Med Chem Lett, 2022)
pEC50: −log10 of the molar value.

How the values were obtained:
[1] = test system: SARS-CoV-2; experiment: Potency index, ratio of EC50 of GS-441524 to EC50 of test compound for antiviral activity against SARS-CoV-2 infected in HAEC cells assessed as reduction in viral replication incubated for 1.5 hrs followed by virus removal upto 24 hrs and subsequent replacement of medium containing compound by RT-qPCR analysis; type: functional, Severe acute respiratory syndrome coronavirus 2; conditions: time <= 25.5 hrs
[2] = test system: SARS-CoV-2; experiment: Antiviral activity against SARS-CoV-2 infected in HAEC cells assessed as reduction in viral replication incubated for 1.5 hrs followed by virus removal upto 24 hrs and subsequent replacement of medium containing compound by RT-qPCR analysis; type: functional, organism-based; conditions: Severe acute respiratory syndrome coronavirus 2, HAEC

| Structure (SMILES) | Ratio [1] | pEC50 [2] |
| --- | --- | --- |
| CCC(CC)OC(=O)[C@H](C)N[P@](=O)(OC[C@H]1O[C@@](C#N)(c2ccc3c(N)ncnn23)[C@H](O)[C@@H]1O)Oc1ccccc1 | 11 | 7.32 |
| N#C[C@@]1(c2ccc3c(N)ncnn23)O[C@H](CO)[C@@H](O)[C@H]1O [GS-441524] |  | 6.29 |
